The values below come from PMC6385203, “Mutations in the palm domain disrupt modulation of acid-sensing ion channel 1a currents by neuropeptides” (Scientific Reports, 2019).

This experiment addresses T1, WT ASIC1a (Homo sapiens, UniProt P78348).
T1 construct: expressed in transfected cells; host or cells: Xenopus laevis oocytes injected with cRNA
T1 sequence (P78348 1-528): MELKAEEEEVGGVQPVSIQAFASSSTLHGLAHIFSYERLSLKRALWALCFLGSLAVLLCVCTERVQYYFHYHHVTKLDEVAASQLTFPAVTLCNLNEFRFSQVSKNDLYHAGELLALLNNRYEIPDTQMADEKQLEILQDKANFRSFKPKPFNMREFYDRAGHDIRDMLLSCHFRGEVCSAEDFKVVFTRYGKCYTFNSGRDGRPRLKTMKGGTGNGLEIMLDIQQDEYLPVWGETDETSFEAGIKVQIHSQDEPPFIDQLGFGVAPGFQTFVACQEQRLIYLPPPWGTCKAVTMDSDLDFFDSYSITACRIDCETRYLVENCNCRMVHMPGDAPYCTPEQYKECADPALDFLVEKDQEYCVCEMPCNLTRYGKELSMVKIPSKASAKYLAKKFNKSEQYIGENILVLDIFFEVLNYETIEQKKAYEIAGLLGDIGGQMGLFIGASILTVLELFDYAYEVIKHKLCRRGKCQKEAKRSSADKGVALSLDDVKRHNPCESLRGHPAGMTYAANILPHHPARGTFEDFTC
As to the kind of experiment: Isust/Ipeak, TEVC in Xenopus oocytes, WT. It counts as cell-based. Particulars: FRRFa in pH7.4 conditioning and pH5 solution, mean ± SEM, n = 7–12, read-out: EC50 for induction of sustained current (Isust/Ipeak). How it is done: ASIC1a function was measured by two-electrode voltage-clamp after recombinant expression in Xenopus oocytes. The channels were activated by a pH5 stimulation solution from a conditioning solution of pH7.4. […] We measured the rate of FRRFa unbinding, as the disappearance of the sustained current after a 50-s incubation with 50 μM FRRFa, as 0.025 ± 0.005 s^−1 (n = 8, Fig. 2b). […] To determine the kinetics of FRRFa association on ASIC1a, we pre-applied the peptide at a concentration of 50 μM for different time periods in the conditioning solution and measured the sustained current fraction.
Human ASIC1a[43] had been subcloned into a vector for transcription that contained 5′- and 3′-untranslated regions of Xenopus β-globin mRNA[44]. Point mutations were introduced using QuikChange (Agilent, Basel, Switzerland). Mutations were verified by sequencing (Synergene Biotech, Zurich, Switzerland). Expression in Xenopus laevis oocytes was carried out as described previously. […]
Electrophysiological measurements were performed 1–2 days after cRNA injection. Ion currents were recorded using two-electrode voltage-clamp at a holding potential of −60 mV with a Dagan TEV-200 amplifier (Minneapolis, MN). […] The amplitude of the sustained current was measured in the last two seconds of the pH5 perfusion. […]

Peptide text beside a SMILES is read from it.

For `N=C(N)NCCC[C@H](NC(=O)[C@H](CCCNC(=N)N)NC(=O)[C@@H](N)Cc1ccccc1)C(=O)N[C@@H](Cc1ccccc1)C(N)=O` [FRRFa, Phe-Arg-Arg-Phe-amide] (H-FRRF-NH2), the EC50 amounted to 37 ± 15 µM.
